Measured values published in patent US8076487B2, “Pyridone derivative and herbicide” (Kumiai Chemical Industry Co., Ltd., priority 2006, dated 2011).

Legend:
Format in all cases: in vivo
[1] = tested on: early watergrass (Echinochloa oryzicola Vasing); test: Test Example 1: herbicidal effect by soil application to paddy field; conditions: paddy field soil application; active ingredient 1,000 g per 1 hectare; wettable powder added dropwise to water surface the day after sowing; examined on the 21st day after application
Method in brief: (§1)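 Plants were sown in flooded (3 cm) paddy soil and evaluated for herbicidal effect 21 days after soil application in a greenhouse.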

[2] = tested on: Japanese bulrush (Scirpus juncoides Roxb.); test: as above; conditions: paddy field soil application; active ingredient 1,000 g per 1 hectare; wettable powder added dropwise to water surface the day after sowing; examined on the 21st day after application
Method in brief: as §1

[3] = tested on: heartshape false pickerelweed (Monochoria vaginalis (Burm.f.) C.Presl); test: as above; conditions: paddy field soil application; active ingredient 1,000 g per 1 hectare; wettable powder added dropwise to water surface the day after sowing; examined on the 21st day after application
Method in brief: as §1

[4] = tested on: barnyardgrass (Echinochloa crus-galli (L.) P. Beauv. var. crus-galli); test: Test Example 3: herbicidal effect by application to upland field (foliage treatment); conditions: 14th day after application; for herbicidal effect, Barnyardgrass: foliage treatment, 1,000 g active ingredient per 1 hectare, greenhouse; for herbicidal effect (index), Barnyardgrass: foliage treatment, plants grown two weeks, 1,000 g active ingredient per hectare
Method in brief: (§2)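 Seeds went into pots of field soil and grew under glass for two weeks. The whole plant was then sprayed from above with diluted wettable powder delivering 1,000 g/ha of active ingredient. Plants stayed in the greenhouse, and injury was graded against a standard 14 days after spraying.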

[5] = tested on: green foxtail (Setaria viridis (L.) P. Beauv.); test: as above; conditions: 14th day after application; for herbicidal effect, Green Foxtail: foliage treatment, 1,000 g active ingredient per 1 hectare, greenhouse; for herbicidal effect (index), Green Foxtail: foliage treatment, plants grown two weeks, 1,000 g active ingredient per hectare
Method in brief: as §2

[6] = tested on: velvetleaf (Abutilon theophrasti medicus); test: as above; conditions: 14th day after application; for herbicidal effect, Velvetleaf: foliage treatment, 1,000 g active ingredient per 1 hectare, greenhouse; for herbicidal effect (index), Velvetleaf: foliage treatment, plants grown two weeks, 1,000 g active ingredient per hectare
Method in brief: as §2

[7] = tested on: slender amaranth (Amaranthus viridis L.); test: as above; conditions: 14th day after application; for herbicidal effect, Slender Amaranth: foliage treatment, 1,000 g active ingredient per 1 hectare, greenhouse; for herbicidal effect (index), Slender Amaranth: foliage treatment, plants grown two weeks, 1,000 g active ingredient per hectare
Method in brief: as §2

[8] = tested on: barnyardgrass (Echinochloa crus-galli (L.) P. Beauv. var. crus-galli); test: Test Example 2: herbicidal effect by soil application to upland field; conditions: soil surface spray, upland field soil, 1,000 g active ingredient per hectare, 21st day after application
Method in brief: (§3)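 Soil-applied wettable powder, 1,000 g a.i./ha, sprayed after sowing onto covered field soil. Effect rated on a standard scale 21 days later in a greenhouse.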

[9] = tested on: green foxtail (Setaria viridis (L.) P. Beauv.); test: as above; conditions: soil surface spray, upland field soil, 1,000 g active ingredient per hectare, 21st day after application
Method in brief: as §3

[10] = tested on: velvetleaf (Abutilon theophrasti medicus); test: as above; conditions: soil surface spray, upland field soil, 1,000 g active ingredient per hectare, 21st day after application
Method in brief: as §3

[11] = tested on: slender amaranth (Amaranthus viridis L.); test: as above; conditions: soil surface spray, upland field soil, 1,000 g active ingredient per hectare, 21st day after application
Method in brief: as §3

Cn1ncc(C(=O)c2ccc(C(F)(F)F)n(C)c2=O)c1OC(=O)OCc1ccc(Cl)cc1 [IV-200] was tested, and the “herbicidal effect, Echinochloa oryzicola Vasing” value [1] was 5 (90% or more of herbicidal effect and crop phytotoxicity), the “herbicidal effect, Scirpus juncoides Roxb.” value [2] was 5 (90% or more of herbicidal effect and crop phytotoxicity) and the “herbicidal effect, Monochoria vaginalis (Burm. f.) C. Presl” value (shortened to “herbicidal effect, Monochoria vaginalis”) [3] was 5 (90% or more of herbicidal effect and crop phytotoxicity). For the same compound, the “herbicidal effect, Barnyardgrass” value [4] was 4 (70 to less than 90% of herbicidal effect and crop phytotoxicity), the “herbicidal effect, Green Foxtail” value [5] was 3 (50 to less than 70% of herbicidal effect and crop phytotoxicity) and the “herbicidal effect, Velvetleaf” value [6] was 5 (90% or more of herbicidal effect and crop phytotoxicity). The “herbicidal effect, Slender Amaranth” value [7] was 5 (90% or more of herbicidal effect and crop phytotoxicity), the “herbicidal effect (index), Barnyardgrass” value [8] was 5 (90% or more of herbicidal effect and crop phytotoxicity) and the “herbicidal effect (index), Green Foxtail” value [9] was 4 (70 to less than 90% of herbicidal effect and crop phytotoxicity). The “herbicidal effect (index), Velvetleaf” value [10] was 5 (90% or more of herbicidal effect and crop phytotoxicity) and the “herbicidal effect (index), Slender Amaranth” value [11] was 5 (90% or more of herbicidal effect and crop phytotoxicity).
In the case of C=CCSCn1c(C(F)(F)F)ccc(C(=O)C2=C(O)CCCC2=O)c1=O [I-63], the “herbicidal effect, Echinochloa oryzicola Vasing” value [1] was 5 (90% or more of herbicidal effect and crop phytotoxicity), the “herbicidal effect, Scirpus juncoides Roxb.” value [2] was 5 (90% or more of herbicidal effect and crop phytotoxicity) and the “herbicidal effect, Monochoria vaginalis” value [3] was 5 (90% or more of herbicidal effect and crop phytotoxicity). The “herbicidal effect (index), Barnyardgrass” value [4] was 5 (90% or more of herbicidal effect and crop phytotoxicity), the “herbicidal effect (index), Green Foxtail” value [5] was 5 (90% or more of herbicidal effect and crop phytotoxicity) and the “herbicidal effect (index), Velvetleaf” value [6] was 5 (90% or more of herbicidal effect and crop phytotoxicity). For the same compound, the “herbicidal effect (index), Slender Amaranth” value [7] was 5 (90% or more of herbicidal effect and crop phytotoxicity), the “herbicidal effect (index), Barnyardgrass” value [8] was 5 (90% or more of herbicidal effect and crop phytotoxicity) and the “herbicidal effect (index), Green Foxtail” value [9] was 4 (70 to less than 90% of herbicidal effect and crop phytotoxicity). The “herbicidal effect (index), Velvetleaf” value [10] was 5 (90% or more of herbicidal effect and crop phytotoxicity) and the “herbicidal effect (index), Slender Amaranth” value [11] was 5 (90% or more of herbicidal effect and crop phytotoxicity).
With CC(C)n1ncc(C(=O)c2ccc(C(F)(F)F)n(C)c2=O)c1O [IV-219] the “herbicidal effect, Echinochloa oryzicola Vasing” value [1] was 5 (90% or more of herbicidal effect and crop phytotoxicity), the “herbicidal effect, Scirpus juncoides Roxb.” value [2] was 5 (90% or more of herbicidal effect and crop phytotoxicity) and the “herbicidal effect, Monochoria vaginalis” value [3] was 5 (90% or more of herbicidal effect and crop phytotoxicity). The “herbicidal effect, Barnyardgrass” value [4] was 5 (90% or more of herbicidal effect and crop phytotoxicity), the “herbicidal effect, Green Foxtail” value [5] was 3 (50 to less than 70% of herbicidal effect and crop phytotoxicity) and the “herbicidal effect, Velvetleaf” value [6] was 5 (90% or more of herbicidal effect and crop phytotoxicity). The “herbicidal effect, Slender Amaranth” value [7] was 5 (90% or more of herbicidal effect and crop phytotoxicity), the “herbicidal effect (index), Barnyardgrass” value [8] was 5 (90% or more of herbicidal effect and crop phytotoxicity) and the “herbicidal effect (index), Green Foxtail” value [9] was 3 (50 to less than 70% of herbicidal effect and crop phytotoxicity). For the same compound, the “herbicidal effect (index), Velvetleaf” value [10] was 5 (90% or more of herbicidal effect and crop phytotoxicity) and the “herbicidal effect (index), Slender Amaranth” value [11] was 5 (90% or more of herbicidal effect and crop phytotoxicity).
For COC(Cn1c(C(F)(F)F)ccc(C(=O)C2=C(O)CCCC2=O)c1=O)OC [I-137], the “herbicidal effect, Echinochloa oryzicola Vasing” value [1] was 5 (90% or more of herbicidal effect and crop phytotoxicity), the “herbicidal effect, Scirpus juncoides Roxb.” value [2] was 5 (90% or more of herbicidal effect and crop phytotoxicity) and the “herbicidal effect, Monochoria vaginalis” value [3] was 5 (90% or more of herbicidal effect and crop phytotoxicity). For the same compound, the “herbicidal effect, Barnyardgrass” value [4] was 5 (90% or more of herbicidal effect and crop phytotoxicity), the “herbicidal effect, Green Foxtail” value [5] was 4 (70 to less than 90% of herbicidal effect and crop phytotoxicity) and the “herbicidal effect, Velvetleaf” value [6] was 5 (90% or more of herbicidal effect and crop phytotoxicity). The “herbicidal effect, Slender Amaranth” value [7] was 5 (90% or more of herbicidal effect and crop phytotoxicity), the “herbicidal effect (index), Barnyardgrass” value [8] was 5 (90% or more of herbicidal effect and crop phytotoxicity) and the “herbicidal effect (index), Green Foxtail” value [9] was 5 (90% or more of herbicidal effect and crop phytotoxicity). The “herbicidal effect (index), Velvetleaf” value [10] was 5 (90% or more of herbicidal effect and crop phytotoxicity) and the “herbicidal effect (index), Slender Amaranth” value [11] was 5 (90% or more of herbicidal effect and crop phytotoxicity).
In the case of Cc1cc(-n2c(C(F)(F)F)ccc(C(=O)C3=C(O)CCCC3=O)c2=O)no1 [I-142], the “herbicidal effect, Echinochloa oryzicola Vasing” value [1] was 5 (90% or more of herbicidal effect and crop phytotoxicity), the “herbicidal effect, Scirpus juncoides Roxb.” value [2] was 5 (90% or more of herbicidal effect and crop phytotoxicity) and the “herbicidal effect, Monochoria vaginalis” value [3] was 5 (90% or more of herbicidal effect and crop phytotoxicity). For the same compound, the “herbicidal effect, Barnyardgrass” value [4] was 5 (90% or more of herbicidal effect and crop phytotoxicity), the “herbicidal effect, Green Foxtail” value [5] was 5 (90% or more of herbicidal effect and crop phytotoxicity) and the “herbicidal effect, Velvetleaf” value [6] was 5 (90% or more of herbicidal effect and crop phytotoxicity). For the same compound, the “herbicidal effect, Slender Amaranth” value [7] was 5 (90% or more of herbicidal effect and crop phytotoxicity), the “herbicidal effect (index), Barnyardgrass” value [8] was 5 (90% or more of herbicidal effect and crop phytotoxicity) and the “herbicidal effect (index), Green Foxtail” value [9] was 5 (90% or more of herbicidal effect and crop phytotoxicity). The “herbicidal effect (index), Velvetleaf” value [10] was 5 (90% or more of herbicidal effect and crop phytotoxicity) and the “herbicidal effect (index), Slender Amaranth” value [11] was 5 (90% or more of herbicidal effect and crop phytotoxicity).
In the case of CCN(C)n1c(C(F)(F)F)ccc(C(=O)C2=C(O)CCCC2=O)c1=O [I-175], the “herbicidal effect, Echinochloa oryzicola Vasing” value [1] was 5 (90% or more of herbicidal effect and crop phytotoxicity), the “herbicidal effect, Scirpus juncoides Roxb.” value [2] was 5 (90% or more of herbicidal effect and crop phytotoxicity) and the “herbicidal effect, Monochoria vaginalis” value [3] was 5 (90% or more of herbicidal effect and crop phytotoxicity). The “herbicidal effect, Barnyardgrass” value [4] was 5 (90% or more of herbicidal effect and crop phytotoxicity), the “herbicidal effect, Green Foxtail” value [5] was 4 (70 to less than 90% of herbicidal effect and crop phytotoxicity) and the “herbicidal effect, Velvetleaf” value [6] was 5 (90% or more of herbicidal effect and crop phytotoxicity). The “herbicidal effect, Slender Amaranth” value [7] was 5 (90% or more of herbicidal effect and crop phytotoxicity), the “herbicidal effect (index), Barnyardgrass” value [8] was 5 (90% or more of herbicidal effect and crop phytotoxicity) and the “herbicidal effect (index), Green Foxtail” value [9] was 5 (90% or more of herbicidal effect and crop phytotoxicity). The “herbicidal effect (index), Velvetleaf” value [10] was 5 (90% or more of herbicidal effect and crop phytotoxicity) and the “herbicidal effect (index), Slender Amaranth” value [11] was 5 (90% or more of herbicidal effect and crop phytotoxicity).
COc1ccc(-n2c(C(F)(F)F)ccc(C(=O)C3=C(O)CCCC3=O)c2=O)c(OC)c1 [I-99] was tested, and the “herbicidal effect, Echinochloa oryzicola Vasing” value [1] was 5 (90% or more of herbicidal effect and crop phytotoxicity), the “herbicidal effect, Scirpus juncoides Roxb.” value [2] was 5 (90% or more of herbicidal effect and crop phytotoxicity) and the “herbicidal effect, Monochoria vaginalis” value [3] was 5 (90% or more of herbicidal effect and crop phytotoxicity). The “herbicidal effect (index), Barnyardgrass” value [4] was 5 (90% or more of herbicidal effect and crop phytotoxicity), the “herbicidal effect (index), Green Foxtail” value [5] was 4 (70 to less than 90% of herbicidal effect and crop phytotoxicity) and the “herbicidal effect (index), Velvetleaf” value [6] was 5 (90% or more of herbicidal effect and crop phytotoxicity). For the same compound, the “herbicidal effect (index), Slender Amaranth” value [7] was 5 (90% or more of herbicidal effect and crop phytotoxicity), the “herbicidal effect (index), Barnyardgrass” value [8] was 5 (90% or more of herbicidal effect and crop phytotoxicity) and the “herbicidal effect (index), Green Foxtail” value [9] was 4 (70 to less than 90% of herbicidal effect and crop phytotoxicity). The “herbicidal effect (index), Velvetleaf” value [10] was 5 (90% or more of herbicidal effect and crop phytotoxicity) and the “herbicidal effect (index), Slender Amaranth” value [11] was 5 (90% or more of herbicidal effect and crop phytotoxicity).
